The target of this experiment is human AT2R fused to Cb23 (Homo sapiens, UniProt P50052). As to the kind of experiment: Radioligand binding assay, displacement of 125I-[Sar1, Ile8]-Angiotensin II, hAT2R Cb23. The following applies: displacement of 125I-[Sar1, Ile8]-Angiotensin II, human AT2R fused to Cb23, HEK-293 cell membrane preparations; read-out: Binding affinity on hAT2R_Cb23 IC50. Put shortly: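 Membranes from HEK-293 cells expressing human AT2R fused to Cb23 were incubated with 0.05 nM 125I-[Sar1, Ile8]-Angiotensin II in 100 μL buffer (50 mM Tris, 5 mM MgCl2, 1 mM EDTA, 0.1% BSA, pH 7.4) for one hour at 25° C. Ligands were tested as eight-point dose-response curves in duplicate, with C21 and Angiotensin II as references.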
Sequence of human AT2R fused to Cb23 (P50052 whole entry, looked up, the tested form may be a part): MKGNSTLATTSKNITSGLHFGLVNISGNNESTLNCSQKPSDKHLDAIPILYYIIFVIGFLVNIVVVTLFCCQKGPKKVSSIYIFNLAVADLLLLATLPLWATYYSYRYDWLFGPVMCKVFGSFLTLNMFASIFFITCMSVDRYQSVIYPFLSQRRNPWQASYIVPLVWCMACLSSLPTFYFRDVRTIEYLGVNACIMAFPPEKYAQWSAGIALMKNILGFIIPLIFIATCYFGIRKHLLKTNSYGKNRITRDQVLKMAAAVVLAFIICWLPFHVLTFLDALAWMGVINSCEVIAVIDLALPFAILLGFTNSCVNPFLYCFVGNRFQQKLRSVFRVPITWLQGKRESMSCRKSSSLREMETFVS
In general terms: In a radioligand displacement assay an active substance lowers the binding of a labelled ligand.
The IC50 is the concentration that inhibits the measured activity by half. With `CCCCOC(=O)NS(=O)(=O)c1ccc(C(F)(F)F)cc1N1CCN(Cc2nc3ccccc3n2C)CC1` [Compound A-09, butyl N-[2-[4-[(1-methylbenzimidazol-2-yl)methyl]piperazin-1-yl]-4-(trifluoromethyl)phenyl]sulfonylcarbamate], the 50% inhibitory concentration (IC50) is 2180 nM.

In the case of `CCCCNC(=O)NS(=O)(=O)c1ccc(C)cc1N1CCN(Cc2nc3ccccc3n2C)CC1` [Compound A-12, 1-butyl-3-[4-methyl-2-[4-[(1-methylbenzimidazol-2-yl)methyl]piperazin-1-yl]phenyl]sulfonyl-urea], the IC50 was determined as 1270 nM.

On to `CC(C)Cc1ccc(-c2nn[nH]n2)c(N2CCN(Cc3nc4ccccc4n3C)CC2)c1` [Compound A-20, 2-[[4-[5-isobutyl-2-(2H-tetrazol-5-yl)-phenyl]piperazin-1-yl]methyl]-1-meth-yl-benzimidazole], for which the half-maximal inhibitory concentration (IC50) amounted to 510 nM.

For `CC(C)Oc1ccc(-c2nn[nH]n2)c(N2CCN(Cc3nc4ccccc4s3)CC2)c1` [Compound A-51, 2-[[4-[5-isoprop-oxy-2-(2H-tetrazol-5-yl)phenyl]piper-azin-1-yl]methyl]-1,3-benzothiazole], the half-inhibitory concentration (IC50) is 2110 nM.

For `CCC1CN(Cc2cccnn2)CCN1c1cc(CC(C)C)cc(F)c1-c1nn[nH]n1` (stereo not drawn) [Compound A-181, 3-[[3-ethyl-4-[3-fluoro-5-isobutyl-2-(2H-tetrazol-5-yl)phenyl]piperazin-1-yl]methyl]pyridazine], the 50% inhibitory concentration (IC50) is 14.8 nM.

For the compound `CC(C)Cc1cc(F)c(-c2nn[nH]n2)c(N2CC(C)N(Cc3cccnn3)CC2C)c1` (stereo not drawn) [Compound A-183, 3-[[4-[3-fluoro-5-isobutyl-2-(2H-tetrazol-5-yl)phen-yl]-2,5-dimethyl-piperazin-1-yl]-methyl]pyridazine], the IC50 is 8.33 nM.

Source of the values: patent US20240368133A1, “Compounds for the Treatment of Pain, in Particular, Neuropathic Pain, and/or Other Diseases or Disorders that are Associated with AT2R and/or AT2R Mediated Signaling” (Confo Therapeutics N.V., priority 2021, published 2024).
